# Where two headings read alike, the source gives them in different places.
# What was measured:
# [1] = test system: 60 cancer cell lines (NCI 60 cancer cell line series); settings: cited from earlier work
# [2] = test system: 60 cancer cell lines (NCI 60 cancer cell line series); assay: NCI-DTP in vitro cancer screen, sulforhodamine B (SRB) growth inhibition, 48 hour exposure; assay type: cell-based, human
# Outline: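 NCI-DTP panel of 60 cancer cell lines plated day 0 at line-specific densities, exposed from day 1 to compound at 5 ten-fold-spaced doses in duplicate wells. After 48 h, cell mass stained with sulforhodamine B; −log GI50 derived from dose–response curves, averaged, and classed Low, Medium or High sensitivity.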
structure (smiles),measurement,setting,value
CN(Cc1cnc2nc(N)nc(N)c2n1)c1ccc(C(=O)N[C@@H](CCC(=O)O)C(=O)O)cc1 [Methotrexate],−Log (GI50),[1]; Leukemia HL-60(I) CL7008,7.4
same,−Log (GI50),[1]; Melanoma M14 CL10014,7.5
same,−Log (GI50),[1]; NSCLC EKVX CL1008,5.0
same,−Log (GI50),[1]; NSCLC HOP-92 CL1029,5.1
same,−Log (GI50),[1]; Renal 786-0 CL9018,7.5
same,"classification of cell line as Low(1), Medium(2), High(3) sensitivity to compound",[2]; Breast BT-549 CL5013,1
same,"classification of cell line as Low(1), Medium(2), High(3) sensitivity to compound",[2]; Breast HS-578T CL5006,1
same,"classification of cell line as Low(1), Medium(2), High(3) sensitivity to compound",[2]; Breast MDA-MB-231 CL5005,1
same,"classification of cell line as Low(1), Medium(2), High(3) sensitivity to compound",[2]; Breast T-47D CL5014,1
same,"classification of cell line as Low(1), Medium(2), High(3) sensitivity to compound",[2]; CNS SF-268 CL12014,2
same,"classification of cell line as Low(1), Medium(2), High(3) sensitivity to compound",[2]; CNS SF-295 CL12015,3
same,"classification of cell line as Low(1), Medium(2), High(3) sensitivity to compound",[2]; CNS SF-539 CL12016,3
same,"classification of cell line as Low(1), Medium(2), High(3) sensitivity to compound",[2]; CNS U251(I) CL12009,2
same,"classification of cell line as Low(1), Medium(2), High(3) sensitivity to compound",[2]; Colon COLO-250 CL4010,2
same,"classification of cell line as Low(1), Medium(2), High(3) sensitivity to compound",[2]; Colon HCC-2998 CL4002,2
same,"classification of cell line as Low(1), Medium(2), High(3) sensitivity to compound",[2]; Colon HCT-15 CL4015,3
same,"classification of cell line as Low(1), Medium(2), High(3) sensitivity to compound",[2]; Colon HCT-116 CL4003,3
same,"classification of cell line as Low(1), Medium(2), High(3) sensitivity to compound",[2]; Colon KM12 CL4017,2
same,"classification of cell line as Low(1), Medium(2), High(3) sensitivity to compound",[2]; Leukemia HL-60(I) CL7008,2
same,"classification of cell line as Low(1), Medium(2), High(3) sensitivity to compound",[2]; Leukemia K562(I) CL7005,3
same,"classification of cell line as Low(1), Medium(2), High(3) sensitivity to compound",[2]; Leukemia RPMI-8226(I) CL7010,2
same,"classification of cell line as Low(1), Medium(2), High(3) sensitivity to compound",[2]; Leukemia SR CL7019,3
same,"classification of cell line as Low(1), Medium(2), High(3) sensitivity to compound",[2]; Melanoma LOX IMVI CL10001,3
same,"classification of cell line as Low(1), Medium(2), High(3) sensitivity to compound",[2]; Melanoma SK-MEL-2 CL10005,1
same,"classification of cell line as Low(1), Medium(2), High(3) sensitivity to compound",[2]; Melanoma SK-MEL-5 CL10007,2
same,"classification of cell line as Low(1), Medium(2), High(3) sensitivity to compound",[2]; Melanoma SK-MEL-28 CL10008,1
same,"classification of cell line as Low(1), Medium(2), High(3) sensitivity to compound",[2]; Melanoma UACC-62 CL10020,3
same,"classification of cell line as Low(1), Medium(2), High(3) sensitivity to compound",[2]; NSCLC A549/ATCC CL1004,3
same,"classification of cell line as Low(1), Medium(2), High(3) sensitivity to compound",[2]; NSCLC EKVX CL1008,1
same,"classification of cell line as Low(1), Medium(2), High(3) sensitivity to compound",[2]; NSCLC HOP-62 CL1026,2
same,"classification of cell line as Low(1), Medium(2), High(3) sensitivity to compound",[2]; NSCLC HOP-92 CL1029,1
same,sensitivity classification Low(1)/Medium(2)/High(3),[2]; NSCLC NCI-H23(I) CL1001,2
same,"classification of cell line as Low(1), Medium(2), High(3) sensitivity to compound",[2]; NSCLC NCI-H226 CL1013,1
same,sensitivity classification Low(1)/Medium(2)/High(3),[2]; NSCLC NCI-H332M CL1017,2
same,sensitivity classification Low(1)/Medium(2)/High(3),[2]; NSCLC NCI-H460 CL1021,3
same,sensitivity classification Low(1)/Medium(2)/High(3),[2]; Ovarian IGROV1 CL6010,2
same,sensitivity classification Low(1)/Medium(2)/High(3),[2]; Ovarian OVCAR-3 CL6001,2
same,sensitivity classification Low(1)/Medium(2)/High(3),[2]; Ovarian OVCAR-4 CL6002,1
same,sensitivity classification Low(1)/Medium(2)/High(3),[2]; Ovarian OVCAR-5 CL6003,2
same,sensitivity classification Low(1)/Medium(2)/High(3),[2]; Prostate DU-145 CL11003,2
same,sensitivity classification Low(1)/Medium(2)/High(3),[2]; Renal A498 CL9013,1
same,sensitivity classification Low(1)/Medium(2)/High(3),[2]; Renal ACHN CL9023,2
same,sensitivity classification Low(1)/Medium(2)/High(3),[2]; Renal RXF-393 CL9016,1
same,sensitivity classification Low(1)/Medium(2)/High(3),[2]; Renal SN12C CL9008,3
same,sensitivity classification Low(1)/Medium(2)/High(3),[2]; Renal TK10 CL9024,1
same,sensitivity classification Low(1)/Medium(2)/High(3),[2]; Renal UO-31 CL9004,2
"CC(=O)O[C@H]1C(=O)[C@@]2(C)[C@H]([C@H](OC(=O)c3ccccc3)[C@]3(O)C[C@H](OC(=O)[C@H](O)[C@@H](NC(=O)c4ccccc4)c4ccccc4)C(C)=C1C3(C)C)[C@]1(OC(C)=O)CO[C@@H]1C[C@@H]2O [TAXOL, paclitaxel, reference compound]",−Log (GI50),[1]; Breast MCF7/ADRr CL5002,5.5
same,−Log (GI50),[1]; Colon COLO-250 CL4010,8.0
same,−Log (GI50),[1]; Melanoma SK-MEL-5 CL10007,6.3
same,−Log (GI50),[1]; Melanoma UACC-62 CL10020,8.1
same,−Log (GI50),[1]; Melanoma UACC-257 CL10021,7.1
same,−Log (GI50),[1]; NSCLC A549/ATCC CL1004,8.0
same,−Log (GI50),[1]; NSCLC EKVX CL1008,4.8
same,−Log (GI50),[1]; NSCLC HOP-62 CL1026,7.4
same,−Log (GI50),[1]; NSCLC HOP-92 CL1029,5.7
same,−Log (GI50),[1]; Ovarian OVCAR-5 CL6003,6.8
same,"classification of cell line as Low(1), Medium(2), High(3) sensitivity to compound",[2]; Breast BT-549 CL5013,2
same,"classification of cell line as Low(1), Medium(2), High(3) sensitivity to compound",[2]; Breast MCF7/ADRr CL5002,1
same,"classification of cell line as Low(1), Medium(2), High(3) sensitivity to compound",[2]; Breast MDA-MB-231 CL5005,2
same,"classification of cell line as Low(1), Medium(2), High(3) sensitivity to compound",[2]; Breast MDA-MB-435 CL5011,3
same,"classification of cell line as Low(1), Medium(2), High(3) sensitivity to compound",[2]; Breast MDA-N CL5012,3
same,"classification of cell line as Low(1), Medium(2), High(3) sensitivity to compound",[2]; CNS SF-268 CL12014,2
same,"classification of cell line as Low(1), Medium(2), High(3) sensitivity to compound",[2]; CNS SF-295 CL12015,2
same,"classification of cell line as Low(1), Medium(2), High(3) sensitivity to compound",[2]; CNS SF-539 CL12016,2
same,"classification of cell line as Low(1), Medium(2), High(3) sensitivity to compound",[2]; CNS SNB-19 CL12002,2
same,"classification of cell line as Low(1), Medium(2), High(3) sensitivity to compound",[2]; CNS U251(I) CL12009,2
same,"classification of cell line as Low(1), Medium(2), High(3) sensitivity to compound",[2]; Colon HCT-15 CL4015,1
same,"classification of cell line as Low(1), Medium(2), High(3) sensitivity to compound",[2]; Colon HCT-116 CL4003,3
same,"classification of cell line as Low(1), Medium(2), High(3) sensitivity to compound",[2]; Colon HT29(I) CL4001,3
same,"classification of cell line as Low(1), Medium(2), High(3) sensitivity to compound",[2]; Colon KM12 CL4017,2
same,"classification of cell line as Low(1), Medium(2), High(3) sensitivity to compound",[2]; Leukemia MOLT-4 CL7006,2
same,"classification of cell line as Low(1), Medium(2), High(3) sensitivity to compound",[2]; Leukemia RPMI-8226(I) CL7010,3
same,"classification of cell line as Low(1), Medium(2), High(3) sensitivity to compound",[2]; Melanoma M14 CL10014,2
same,sensitivity classification Low(1)/Medium(2)/High(3),[2]; NSCLC NCI-H23(I) CL1001,2
same,sensitivity classification Low(1)/Medium(2)/High(3),[2]; NSCLC NCI-H332M CL1017,2
same,sensitivity classification Low(1)/Medium(2)/High(3),[2]; Ovarian IGROV1 CL6010,2
same,sensitivity classification Low(1)/Medium(2)/High(3),[2]; Ovarian OVCAR-4 CL6002,1
same,sensitivity classification Low(1)/Medium(2)/High(3),[2]; Ovarian OVCAR-8 CL6005,2
same,sensitivity classification Low(1)/Medium(2)/High(3),[2]; Ovarian SK-OV-3 CL6011,2
same,sensitivity classification Low(1)/Medium(2)/High(3),[2]; Prostate DU-145 CL11003,2
same,sensitivity classification Low(1)/Medium(2)/High(3),[2]; Prostate PC-3(I) CL11001,2
same,sensitivity classification Low(1)/Medium(2)/High(3),[2]; Renal 786-0 CL9018,2
same,sensitivity classification Low(1)/Medium(2)/High(3),[2]; Renal ACHN CL9023,1
same,sensitivity classification Low(1)/Medium(2)/High(3),[2]; Renal CAKI-1 CL9015,1
same,sensitivity classification Low(1)/Medium(2)/High(3),[2]; Renal RXF-393 CL9016,2
same,sensitivity classification Low(1)/Medium(2)/High(3),[2]; Renal SN12C CL9008,2
same,sensitivity classification Low(1)/Medium(2)/High(3),[2]; Renal UO-31 CL9004,1
